Measured values taken from publication PMC5218480 (PLoS ONE, 2017).

System: MV-4-11 cells
Assay: Gene expression microarray analysis (Affymetrix PrimeView) and GSEA
Format: cell-based, human
Design: RFU PODN (11730768_x_at) / Fold change /veh PODN (11730768_x_at) / RFU LINC00158 (11744669_a_at) / Fold change /veh LINC00158 (11744669_a_at) / RFU DUSP10 (11751237_a_at) / Fold change /veh DUSP10 (11751237_a_at) / RFU ID3 (11757404_x_at) / Fold change /veh ID3 (11757404_x_at) / RFU PLEKHG5 (11737974_s_at) / Fold change /veh PLEKHG5 (11737974_s_at) / RFU LRRC4B (11730491_at) / Fold change /veh LRRC4B (11730491_at) / RFU GIMAP4 (11747438_a_at) / Fold change /veh GIMAP4 (11747438_a_at) / RFU KRT8 (11758183_x_at) / Fold change /veh KRT8 (11758183_x_at) / RFU CNN1 (11734310_a_at) / Fold change /veh CNN1 (11734310_a_at) / RFU VPS37D (11726825_at) / Fold change /veh VPS37D (11726825_at) / RFU C10orf10 (11716522_x_at) / Fold change /veh C10orf10 (11716522_x_at) / RFU KIR2DL2 /// KIR2DL4 /// KIR2DL5A /// KIR2DL5B /// KIR2DS1 /// KIR2DS2 /// KIR2DS3 /// KIR2DS4 /// KIR3DL3 /// KIR3DL3 /// KIR3DS1 (11738374_at) / Fold change /veh KIR2DL2 /// KIR2DL4 /// KIR2DL5A /// KIR2DL5B /// KIR2DS1 /// KIR2DS2 /// KIR2DS3 /// KIR2DS4 /// KIR3DL3 /// KIR3DL3 /// KIR3DS1 (11738374_at) / RFU C1QL1 (11718748_at) / Fold change /veh C1QL1 (11718748_at) / RFU TMPRSS4 (11747572_a_at) / Fold change /veh TMPRSS4 (11747572_a_at) / RFU HAMP (11756126_x_at) / Fold change /veh HAMP (11756126_x_at) / RFU RNFT2 (11725882_a_at) / Fold change /veh RNFT2 (11725882_a_at) / RFU NR4A2 (11747474_a_at) / Fold change /veh NR4A2 (11747474_a_at) / RFU ABCC12 (11746883_a_at) / Fold change /veh ABCC12 (11746883_a_at) / RFU TMEM136 (11760407_x_at) / Fold change /veh TMEM136 (11760407_x_at) / RFU CLDN22 /// WWC2 (11732394_at) / Fold change /veh CLDN22 /// WWC2 (11732394_at) / RFU HLA-DPB1 (11760878_x_at) / Fold change /veh HLA-DPB1 (11760878_x_at) / RFU SPINT1 (11716480_a_at) / Fold change /veh SPINT1 (11716480_a_at) / RFU GAP43 (11754022_s_at) / Fold change /veh GAP43 (11754022_s_at) / RFU A4GNT (11735810_at) / Fold change /veh A4GNT (11735810_at) / RFU PRB3 (11715151_x_at) / Fold change /veh PRB3 (11715151_x_at) / RFU TUBB4B (11761932_at) / Fold change /veh TUBB4B (11761932_at) / RFU CAPN14 (11732068_a_at) / Fold change /veh CAPN14 (11732068_a_at) / RFU TMCC2 (11721928_a_at) / Fold change /veh TMCC2 (11721928_a_at) / RFU IRGQ (11745062_a_at) / Fold change /veh IRGQ (11745062_a_at) / RFU FAM174B (11720279_a_at) / Fold change /veh FAM174B (11720279_a_at) / RFU TMPRSS4 (11748680_a_at) / Fold change /veh TMPRSS4 (11748680_a_at) / RFU FAM212B (11763350_a_at) / Fold change /veh FAM212B (11763350_a_at) / RFU PLEKHG5 (11743358_a_at) / Fold change /veh PLEKHG5 (11743358_a_at) / RFU ZSCAN30 (11745921_a_at) / Fold change /veh ZSCAN30 (11745921_a_at) / RFU CMKLR1 (11741424_a_at) / Fold change /veh CMKLR1 (11741424_a_at) / RFU LOC101060620 /// MAPK8IP1 (11723275_at) / Fold change /veh LOC101060620 /// MAPK8IP1 (11723275_at) / RFU SPTSSB (11747773_x_at) / Fold change /veh SPTSSB (11747773_x_at) / RFU PRSS12 (11739890_at) / Fold change /veh PRSS12 (11739890_at) / RFU BIN1 (11741810_x_at) / Fold change /veh BIN1 (11741810_x_at) / RFU WNT11 (11732464_a_at) / Fold change /veh WNT11 (11732464_a_at) / RFU C10orf10 (11716521_a_at) / Fold change /veh C10orf10 (11716521_a_at) / RFU C5orf56 (11738089_at) / Fold change /veh C5orf56 (11738089_at) / RFU CYB561 (11721691_x_at) / Fold change /veh CYB561 (11721691_x_at) / RFU ANKRD19P (11752326_a_at) / Fold change /veh ANKRD19P (11752326_a_at) / RFU OR2T12 /// OR2T33 /// OR2T8 (11738714_s_at) / Fold change /veh OR2T12 /// OR2T33 /// OR2T8 (11738714_s_at) / RFU VCAN (11748164_a_at) / Fold change /veh VCAN (11748164_a_at) / RFU JSRP1 (11732532_at) / Fold change /veh JSRP1 (11732532_at) / RFU KRTAP10-11 (11738290_x_at) / Fold change /veh KRTAP10-11 (11738290_x_at) / RFU MYO3A (11730013_a_at) / Fold change /veh MYO3A (11730013_a_at) / RFU EBF3 (11725865_a_at) / Fold change /veh EBF3 (11725865_a_at) / RFU CAMK2N1 (11719241_x_at) / Fold change /veh CAMK2N1 (11719241_x_at) / RFU C5orf56 (11738088_a_at) / Fold change /veh C5orf56 (11738088_a_at) / RFU OLFML3 (11715873_a_at) / Fold change /veh OLFML3 (11715873_a_at) / RFU LOC100653217 /// NTM (11731650_a_at) / Fold change /veh LOC100653217 /// NTM (11731650_a_at) / RFU MAPK11 (11762145_a_at) / Fold change /veh MAPK11 (11762145_a_at) / RFU FIZ1 (11724087_x_at) / Fold change /veh FIZ1 (11724087_x_at) / RFU OASL (11726364_x_at) / Fold change /veh OASL (11726364_x_at) / RFU SOX15 (11748057_x_at) / Fold change /veh SOX15 (11748057_x_at) / RFU CD79A (11719716_a_at) / Fold change /veh CD79A (11719716_a_at) / RFU HIST1H1D (11736915_at) / Fold change /veh HIST1H1D (11736915_at) / RFU CASKIN2 (11723855_a_at) / Fold change /veh CASKIN2 (11723855_a_at) / RFU LOC730098 (11760151_x_at) / Fold change /veh LOC730098 (11760151_x_at) / RFU OR4N2 (11742367_at) / Fold change /veh OR4N2 (11742367_at) / RFU PRRT2 (11749266_a_at) / Fold change /veh PRRT2 (11749266_a_at) / RFU SNX32 (11753110_a_at) / Fold change /veh SNX32 (11753110_a_at) / RFU CDHR5 (11726645_a_at) / Fold change /veh CDHR5 (11726645_a_at) / RFU RCAN1 (11760418_a_at) / Fold change /veh RCAN1 (11760418_a_at) / RFU FAM167A (11723789_a_at) / Fold change /veh FAM167A (11723789_a_at) / RFU FAM26E (11764081_at) / Fold change /veh FAM26E (11764081_at) / RFU ISYNA1 (11749810_s_at) / Fold change /veh ISYNA1 (11749810_s_at) / RFU ACY1 (11761880_at) / Fold change /veh ACY1 (11761880_at) / RFU 11764098_at / Fold change /veh 11764098_at / RFU SAMD14 (11745864_x_at) / Fold change /veh SAMD14 (11745864_x_at) / RFU NPB (11741838_a_at) / Fold change /veh NPB (11741838_a_at) / RFU TMPRSS6 (11731388_a_at) / Fold change /veh TMPRSS6 (11731388_a_at) / RFU KRTAP10-2 (11738614_at) / Fold change /veh KRTAP10-2 (11738614_at) / RFU ARHGAP8 /// PRR5-ARHGAP8 (11727945_x_at) / Fold change /veh ARHGAP8 /// PRR5-ARHGAP8 (11727945_x_at) / RFU KRTAP5-7 /// NADSYN1 (11734609_at) / Fold change /veh KRTAP5-7 /// NADSYN1 (11734609_at) / RFU RASL12 (11751679_a_at) / Fold change /veh RASL12 (11751679_a_at) / RFU CDKN2B (11736163_a_at) / Fold change /veh CDKN2B (11736163_a_at) / RFU PRF1 (11729649_at) / Fold change /veh PRF1 (11729649_at) / RFU, ZNF638 /// ZNF638-IT1 / Fold change vs veh, ZNF638 /// ZNF638-IT1 / RFU, PANK3 / Fold change vs veh, PANK3 / RFU, SH3YL1 / Fold change vs veh, SH3YL1 / RFU, ZEB2 / Fold change vs veh, ZEB2 / RFU, NRIP1 / Fold change vs veh, NRIP1 / RFU, PTTG1IP / Fold change vs veh, PTTG1IP / RFU, CAPN2 / Fold change vs veh, CAPN2 / RFU, MED14 / Fold change vs veh, MED14 / RFU, SNORA58 / Fold change vs veh, SNORA58 / RFU, C1orf63 / Fold change vs veh, C1orf63 / RFU, LRRFIP1 / Fold change vs veh, LRRFIP1 / RFU, NDUFAF7 / Fold change vs veh, NDUFAF7 / RFU, SLC12A2 / Fold change vs veh, SLC12A2 / RFU, IBTK / Fold change vs veh, IBTK / RFU, ESF1 / Fold change vs veh, ESF1 / Fold change vs veh, TMEM50B / RFU, TAOK1 / Fold change vs veh, TAOK1 / RFU, ACBD3 / Fold change vs veh, ACBD3 / RFU, TMA16 / Fold change vs veh, TMA16 / RFU, RWDD3 / Fold change vs veh, RWDD3 / RFU, BCAT1 / Fold change vs veh, BCAT1 / RFU, EDEM3 / Fold change vs veh, EDEM3 / RFU, TMEM33 / Fold change vs veh, TMEM33 / RFU, WDR75 / Fold change vs veh, WDR75 / RFU, AHCTF1 / Fold change vs veh, AHCTF1 / RFU, TFRC / Fold change vs veh, TFRC / RFU, ZDHHC17 / Fold change vs veh, ZDHHC17 / RFU, NOM1 / Fold change vs veh, NOM1 / RFU, ARL8B / Fold change vs veh, ARL8B / RFU, ZBTB11 / Fold change vs veh, ZBTB11 / RFU, TAMM41 / Fold change vs veh, TAMM41 / RFU, KIAA1704 /// LOC100996395 / Fold change vs veh, KIAA1704 /// LOC100996395 / RFU, ING1 / Fold change vs veh, ING1 / RFU, TRMT61B / Fold change vs veh, TRMT61B / RFU, FUBP3 / Fold change vs veh, FUBP3 / RFU, TP53 / Fold change vs veh, TP53 / RFU, TNKS2 / Fold change vs veh, TNKS2 / RFU, ZFP14 / Fold change vs veh, ZFP14 / RFU, ACTR2 / Fold change vs veh, ACTR2 / RFU, PPP3R1 / Fold change vs veh, PPP3R1 / RFU, PIK3R1 / Fold change vs veh, PIK3R1 / RFU, HNRNPA1 / Fold change vs veh, HNRNPA1 / RFU, RNF170 / Fold change vs veh, RNF170 / RFU, ZNF28 / Fold change vs veh, ZNF28 / RFU, RNGTT / Fold change vs veh, RNGTT / RFU, OGT / Fold change vs veh, OGT / RFU, BRD1 / Fold change vs veh, BRD1 / RFU, MARS / Fold change vs veh, MARS / RFU, ZNF655 / Fold change vs veh, ZNF655 / RFU, FAHD1 / Fold change vs veh, FAHD1 / RFU, BDP1 / Fold change vs veh, BDP1 / RFU, LRRCC1 / Fold change vs veh, LRRCC1 / RFU, ARID1A / Fold change vs veh, ARID1A / RFU, ZNF146 / Fold change vs veh, ZNF146 / RFU, ZNF330 / Fold change vs veh, ZNF330 / RFU, GPN3 / Fold change vs veh, GPN3 / RFU, C9orf123 / Fold change vs veh, C9orf123 / RFU, N4BP2L2 / Fold change vs veh, N4BP2L2 / RFU, ARFIP1 / Fold change vs veh, ARFIP1 / RFU, FAM179B / Fold change vs veh, FAM179B / RFU, BCL10 / Fold change vs veh, BCL10 / RFU, UHRF1BP1L / Fold change vs veh, UHRF1BP1L / RFU, BET1 / Fold change vs veh, BET1 / RFU, CNOT2 / Fold change vs veh, CNOT2 / RFU, ZNF268 / Fold change vs veh, ZNF268 / Fold change vs veh, ZNF507 / RFU, DGCR2 / Fold change vs veh, DGCR2 / RFU, WDSUB1 / Fold change vs veh, WDSUB1 / Fold change vs veh, HSP90B1 /// MIR3652 / RFU, ADSS / Fold change vs veh, ADSS / RFU, GK / Fold change vs veh, GK / RFU, ZNF148 / Fold change vs veh, ZNF148 / RFU, TAF9 / Fold change vs veh, TAF9 / RFU, SLC1A5 / Fold change vs veh, SLC1A5 / RFU, SLMO2 / Fold change vs veh, SLMO2 / RFU, ABCC4 / Fold change vs veh, ABCC4 / RFU, LOC101060439 /// RAP1B / Fold change vs veh, LOC101060439 /// RAP1B / RFU, RFX7 / Fold change vs veh, RFX7 / RFU, GTPBP10 / Fold change vs veh, GTPBP10 / RFU, CNEP1R1 / Fold change vs veh, CNEP1R1 / RFU, BIVM-ERCC5 /// ERCC5 / Fold change vs veh, BIVM-ERCC5 /// ERCC5 / RFU, ILF3 / Fold change vs veh, ILF3 / RFU 11762660_at / Fold change /veh 11762660_at / RFU VCAN (11757783_s_at) / Fold change /veh VCAN (11757783_s_at) / RFU DDX43 (11728927_at) / Fold change /veh DDX43 (11728927_at) / RFU KRT8 (11758188_x_at) / Fold change /veh KRT8 (11758188_x_at) / RFU NKD1 (11759106_at) / Fold change /veh NKD1 (11759106_at) / RFU SRD5A1 (11742802_a_at) / Fold change /veh SRD5A1 (11742802_a_at) / RFU TPSAB1 /// TPSB2 (11721975_s_at) / Fold change /veh TPSAB1 /// TPSB2 (11721975_s_at) / RFU GSTM3 (11746129_a_at) / Fold change /veh GSTM3 (11746129_a_at) / RFU IL23R (11737362_x_at) / Fold change /veh IL23R (11737362_x_at) / RFU TMEM51 (11727254_a_at) / Fold change /veh TMEM51 (11727254_a_at) / RFU PIWIL2 (11732686_x_at) / Fold change /veh PIWIL2 (11732686_x_at) / RFU ORM1 (11744905_x_at) / Fold change /veh ORM1 (11744905_x_at) / RFU CCDC152 (11743942_at) / Fold change /veh CCDC152 (11743942_at) / RFU ECM1 (11717891_a_at) / Fold change /veh ECM1 (11717891_a_at) / RFU IL23R (11748794_a_at) / Fold change /veh IL23R (11748794_a_at) / RFU TNFAIP8L3 (11732012_x_at) / Fold change /veh TNFAIP8L3 (11732012_x_at) / RFU MBOAT4 (11741988_at) / Fold change /veh MBOAT4 (11741988_at) / RFU 11764193_at / Fold change /veh 11764193_at / RFU TMEM53 (11763286_at) / Fold change /veh TMEM53 (11763286_at) / RFU MAGEB2 (11727129_at) / Fold change /veh MAGEB2 (11727129_at) / RFU TMEM200A (11744735_a_at) / Fold change /veh TMEM200A (11744735_a_at) / RFU CCDC152 (11751479_a_at) / Fold change /veh CCDC152 (11751479_a_at) / RFU FAM211A (11726209_a_at) / Fold change /veh FAM211A (11726209_a_at) / RFU RGS16 (11746705_a_at) / Fold change /veh RGS16 (11746705_a_at) / RFU VCAN (11755009_s_at) / Fold change /veh VCAN (11755009_s_at) / RFU RHOB (11743442_s_at) / Fold change /veh RHOB (11743442_s_at) / RFU RGS16 (11720943_a_at) / Fold change /veh RGS16 (11720943_a_at) / RFU RGS16 (11720944_at) / Fold change /veh RGS16 (11720944_at) / RFU, VPS4B / Fold change vs veh, VPS4B / RFU, CREB1 / Fold change vs veh, CREB1 / RFU, DNAJC13 / Fold change vs veh, DNAJC13 / RFU, GNAQ / Fold change vs veh, GNAQ / RFU, CDK5R1 / Fold change vs veh, CDK5R1 / RFU, ZRANB3 / Fold change vs veh, ZRANB3 / RFU, CUL4A / Fold change vs veh, CUL4A / RFU, CCNY / Fold change vs veh, CCNY / RFU, UFL1 / Fold change vs veh, UFL1 / RFU, COG3 / Fold change vs veh, COG3 / RFU, DIAPH2 / Fold change vs veh, DIAPH2 / RFU, SKA2 / Fold change vs veh, SKA2 / RFU, AFF3 / Fold change vs veh, AFF3 / RFU, LMF1 / Fold change vs veh, LMF1 / RFU, IPO11 / Fold change vs veh, IPO11 / RFU, DFFB / Fold change vs veh, DFFB / RFU, FOXP1 / Fold change vs veh, FOXP1 / RFU, CARD8 / Fold change vs veh, CARD8 / RFU, STRN3 / Fold change vs veh, STRN3 / RFU, ADK / Fold change vs veh, ADK / RFU, RASSF2 / Fold change vs veh, RASSF2 / RFU, WIPF1 / Fold change vs veh, WIPF1 / RFU, LARP1B / Fold change vs veh, LARP1B / RFU, RASA1 / Fold change vs veh, RASA1 / RFU, RB1 / Fold change vs veh, RB1 / RFU, PPFIA1 / Fold change vs veh, PPFIA1 / RFU, MAT2A / Fold change vs veh, MAT2A / RFU, CCT5 / Fold change vs veh, CCT5 / RFU, WDR92 / Fold change vs veh, WDR92 / RFU, CUX1 / Fold change vs veh, CUX1 / RFU, TTC7A / Fold change vs veh, TTC7A / RFU, TMEM135 / Fold change vs veh, TMEM135 / RFU, DEPTOR / Fold change vs veh, DEPTOR / RFU, CPM / Fold change vs veh, CPM / RFU, DNAJB6 / Fold change vs veh, DNAJB6 / RFU, CACNA2D3 / Fold change vs veh, CACNA2D3 / RFU, DTX4 / Fold change vs veh, DTX4 / RFU, TFCP2 / Fold change vs veh, TFCP2 / RFU, GMCL1 /// GMCL1P1 / Fold change vs veh, GMCL1 /// GMCL1P1 / RFU, AEBP2 / Fold change vs veh, AEBP2 / RFU, SNHG1 /// SNORD22 /// SNORD25 /// SNORD26 /// SNORD27 /// SNORD28 /// SNORD29 /// SNORD31 / Fold change vs veh, SNHG1 /// SNORD22 /// SNORD25 /// SNORD26 /// SNORD27 /// SNORD28 /// SNORD29 /// SNORD31 / Fold change (Aza/veh), C12orf56 (ProbeSet 11735607_a_at) / Fold change (ACY-1035/veh), C12orf56 (ProbeSet 11735607_a_at) / Fold change (Aza/veh), FGFR1OP (ProbeSet 11751329_s_at) / Fold change (ACY-1035/veh), FGFR1OP (ProbeSet 11751329_s_at) / Fold change (Aza/veh), VPS36 (ProbeSet 11739960_a_at) / Fold change (ACY-1035/veh), VPS36 (ProbeSet 11739960_a_at) / RFU SYPL1 (11715823_x_at) / Fold change /veh SYPL1 (11715823_x_at) / RFU IGFBP7 (11715501_s_at) / Fold change /veh IGFBP7 (11715501_s_at) / RFU REEP3 (11722064_at) / Fold change /veh REEP3 (11722064_at) / RFU IGLL1 (11728026_x_at) / Fold change /veh IGLL1 (11728026_x_at): dose or concentration left out as unconfirmed
Settings: ProbeSet 11743882_a_at; LIST D

## Nc1ncn([C@@H]2O[C@H](CO)[C@@H](O)[C@H]2O)c(=O)n1 [azacitidine]
  RFU, STRN3: 92.89 RFU
